TGI data for three compounds are collected here from PubChem BioAssay (NCI).

Structures are written as SMILES.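 Interpolation was linear, between the two tested concentrations surrounding the appropriate level; five concentrations were tested over 48 hours in 96-well plates. TGI: concentration producing complete growth inhibition.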 Some results are limits rather than exact numbers.

Some test systems named below: DMS 114 small cell lung; DMS 273 small cell lung; P388 leukemia; P388/ADR leukemia; SN12K1 renal; XF 498 CNS; LXFL 529 NSCLC; RXF-631 renal.
Common to all, as to assay: NCI tumour cell line growth inhibition, 48 h

Consider `COc1cccc2c1C(=O)c1c(O)c3c(c(O)c1C2=O)C[C@@](O)(/C(C)=N/NC(=O)c1ccccc1)C[C@@H]3OC1CC(N)C(O)C(C)O1` (stereo not given in full), for which the TGI came out at 1.11 µM with DMS 114 small cell lung; 1.65 µM in the assay on DMS 273 small cell lung; 1.61 µM in the assay on P388 leukemia; 35.6 µM with P388/ADR leukemia; 1.88 µM in the assay with SN12K1 renal; 0.242 µM with XF 498 CNS.
Regarding `Nc1nc(N)c2nc(-c3ccco3)cnc2n1`, the TGI in the assay on DMS 114 small cell lung, in the assay with LXFL 529 NSCLC, in the assay with RXF-631 renal and in the assay with XF 498 CNS was greater than 100 µM in each case.
On to `NC(Cc1c[nH]c2ccccc12)C(=O)O` (stereo not given), for which the TGI with DMS 114 small cell lung, with DMS 273 small cell lung, in the assay with P388 leukemia, in the assay on P388/ADR leukemia and in the assay on SN12K1 renal was greater than 300 µM throughout.
